According to patent US20240026301A1, “METHODS AND COMPOSITIONS FOR GENERATING ENDOTHELIAL CELLS FROM PLURIPOTENT STEM CELLS” (Trailhead Biosystems Inc., priority 2022, published 2024):
“Also recorded” adds a separate entry of the source.

Tests used:
[1] = tested on: pluripotent stem cells; conditions: DMEM base media with ascorbic acid; GSK-inhibitor treatment; cited from earlier work
[2] = tested on: PECAM1 (CD31); assay: 8-factor HD-DoE experiments (qPCR, partial least squares models) optimized for maximum expression of PECAM1 (CD31), stage 2 differentiation; type: cell-based, human
Procedure: First, undifferentiated iPSC were grown for 48 h in CDM2 media containing 6 uM CHIR99021 (referred to herein as stage 1). Then stage 2 media was engineered. The basis of this was an 8-factor HD-DoE experiment with focus on differentiation of cells toward the endothelial lineage for an additional 3 days after termination of stage 1 treatment. To test the effectors, 48 different combinations of effectors generated using Design-of-Experiments compression through D-optimality were robotically prepared. The effector combinations were prepared in a basal media and were subsequently added to the cells, which were then allowed to differentiate. Three days later, RNA extraction was performed, and gene expression was obtained using quantitative PCR analysis. The data were normalized and modeled using partial least squares regression analysis to the effector design, resulting in the generation of gene-specific models, which after model tuning for maximal Q2 predictive power, provided explanation of the effectors ability to control the expression of individual genes, combinatorically, and individually. Solutions within the tested space could then be explored to address desirability. Optimizing for maximal expression of CD31 led to a robust solution. […] On this model, we observed high levels of KDR, important receptor for VEGF signaling.
This model was derived from initial testing of eight factors including: VEGF, FGF2, TTNBP, AGN194310, Y27632, Thymosin B4 and Heparin.
Next, we evaluated further factors to possibly increase the complexity of the signaling inputs to attain effective fate control. As previously, we focused on expression of CD31. Optimizing for maximal expression of the CD31 led to a robust solution. […] This model was derived from initial testing of eight factors including: YHHU-3792, DBZ, Pumorphamine, SANT1, LPA, YODA1, VEGF and B27. […] DBZ and LPA had low contributions factors and therefore were not used in the recipe.
To further improve the recipe for endothelial cell differentiation, we performed additional HD-DoE experiments. This model was derived from initial testing of eight factors including: VEGF, FGF2, Sphingosine 1 phosphate, VH298, Pyrintegrin, Erythropoetin, L-ascorbic acid and XAV939. […] On this model, we observed high levels of KDR, important receptor for VEGF signaling. […] Considering all the models analyzed, based on predicted conditions that maximize expression of endothelial enriched genes such as ERG, CDH5, CD31, FLI1, CD34, a complex recipe for endothelial differentiation was developed that is composed of 6 effectors, as shown below in Table 2: […]

[3] = tested on: CD31; assay: Factor criticality analysis (dynamic profile analysis), CD31 expression level; type: cell-based, human; parameters: values of CD31, effector removed / CD31 levels, effector removed / CD31 levels before addition of the SHH agonist / CD31 levels after addition of the SHH agonist: unit not given here; conditions: for values of CD31, effector present / values of CD31, effector removed: FIG. 6 model; for values of CD31, effector present: all factors present
[4] = tested on: PECAM1, CD34, CDH5 and FLI1; assay: Dynamic profile analysis of expression levels relative to effector concentration (figure legends); type: cell-based, human; conditions: for impact on expression of PECAM1, CD34, CDH5 and FLI1: FIG. 5A-5B, slope of plots relative to effector concentration
Source text: FIG. 5A-5B show the dynamic profile analysis of expression levels of PECAM1, CD34, CDH5 and FLI1 relative to the concentration of 3 validated effectors.
FIG. 6A-6B show the dynamic profile analysis of expression levels of PECAM1, CD34, CDH5 and Fli1 relative to the concentration of 3 validated effectors.
(§1) To assess the impact of elimination of each validated factor on genes associated with the endothelial lineage, dynamic profile analysis was used and the expression levels of genes of interest were compared in the absence of each finalized factor while others are kept present.

[5] = tested on: CDH5; assay: Factor criticality analysis (dynamic profile analysis), CDH5 expression level; type: cell-based, human
[6] = tested on: CD31; assay: Factor criticality analysis (dynamic profile analysis), CD31 expression level; type: cell-based, human; parameters: values of CD31, effector removed: unit not given here; conditions: FIG. 5 model; for values of CD31, effector present: all finalized factors present; for values of CD31, effector removed: named effector removed, other factors kept
Procedure: (§2) First, undifferentiated iPSC were grown for 48 h in CDM2 media containing 6 uM CHIR99021 (referred to herein as stage 1). Then stage 2 media was engineered. The basis of this was an 8-factor HD-DoE experiment with focus on differentiation of cells toward the endothelial lineage for an additional 3 days after termination of stage 1 treatment. To test the effectors, 48 different combinations of effectors generated using Design-of-Experiments compression through D-optimality were robotically prepared. The effector combinations were prepared in a basal media and were subsequently added to the cells, which were then allowed to differentiate. Three days later, RNA extraction was performed, and gene expression was obtained using quantitative PCR analysis. The data were normalized and modeled using partial least squares regression analysis to the effector design, resulting in the generation of gene-specific models, which after model tuning for maximal Q2 predictive power, provided explanation of the effectors ability to control the expression of individual genes, combinatorically, and individually. Solutions within the tested space could then be explored to address desirability.
as §1
(§3) In this analysis, removal of a finalized effector while keeping other factors was used to analyze the impact of factors on the expression levels of CD31, CD34, FLi1 and CDH5 (FIG. 5A).

[7] = tested on: FLI1; assay: Factor criticality analysis (dynamic profile analysis), FLI1 expression level; type: cell-based, human; conditions: for values of FLI1, effector present: all finalized factors present; for values of Fli1, effector present / values of Fli1, effector removed: FIG. 6 model; for values of Fli1, effector present: all factors present
Procedure: as §2, §1, §3

[8] = tested on: CDH5; assay: Factor criticality analysis (dynamic profile analysis), CDH5 expression level; type: cell-based, human; conditions: FIG. 5 model; for values of CDH5, effector present: all finalized factors present; for values of CDH5, effector removed: named effector removed, other factors kept
Procedure: as §2, §1, §3

[9] = tested on: CD34; assay: Factor criticality analysis (dynamic profile analysis), CD34 expression level; type: cell-based, human; conditions: for values of CD34, effector present / values of CD34, effector removed: FIG. 5 model; for values of CD34, effector present: all finalized factors present; for values of CD34, effector removed / CD34 levels, effector removed: named effector removed; for values of CD34, effector removed: other factors kept
Procedure: as §2, §1, §3

[10] = model of FIG. 3, factors YHHU-3792, DBZ, Pumorphamine, SANT1, LPA, YODA1, VEGF, B27
[11] = FIG. 7 model, L-ascorbic acid kept in the model
[12] = FIG. 7 model, named effector removed, L-ascorbic acid kept
[13] = model of FIG. 2, factors VEGF, FGF2, TTNBP, AGN194310, Y27632, Thymosin B4, Heparin, 3 days after stage 1
[14] = model of FIG. 4, factors VEGF, FGF2, Sphingosine 1 phosphate, VH298, Pyrintegrin, Erythropoetin, L-ascorbic acid, XAV939
[15] = FIG. 6 model, all factors present

Compound	factor contribution (positive impact on expression of genes of interest) [2, 10]	values of CD31, effector present [6]	values of CD31, effector removed [6]	values of FLI1, effector present ([7]; FIG. 5 model)	values of CDH5, effector present [8]	values of CDH5, effector removed [8]	factor contribution (positive impact on expression of genes of interest) [2, 13]	impact on expression of PECAM1, CD34, CDH5 and FLI1 [4]	values of CD34, effector present [9]	values of CD34, effector removed [9]	factor contribution (positive impact on expression of genes of interest) [2, 14]	other results
Cc1c[nH]c(-c2cnc(NCCNc3ccc(C#N)cn3)nc2-c2ccc(Cl)cc2Cl)n1 [CHIR99012]												yield of CD34+CD31+ cells prior to sorting [1]: 20-30%
C[C@H](NC(=O)Cc1cc(F)cc(F)c1)C(=O)N[C@@H]1C(=O)N(C)c2ccccc2-c2ccccc21 [DBZ]	low											
c1ccc2c(Oc3nc(Nc4ccc(N5CCOCC5)cc4)c4ncn(C5CCCCC5)c4n3)cccc2c1 [Pumorphamine]												CD31 levels after addition of the SHH agonist ([3]; FIG. 7 model, agent added): 400; CD31 levels before addition of the SHH agonist ([3]; FIG. 7 model, without the added agent): 800
Cc1nn(-c2ccccc2)c(C)c1/C=N/N1CCN(Cc2ccccc2)CC1 [SANT1]	16											CD31 levels, effector present [3, 11]: 808; CD31 levels, effector removed [3, 12]: 563; impact on PECAM1 and CDH5 expression ([4]; FIG. 7A-7B model): positive impact; CDH5 levels, effector present [5, 11]: 2928; CDH5 levels, effector removed [5, 12]: 2340
C/C(=C\c1ccc(C(=O)O)cc1)c1ccc2c(c1)C(C)(C)CCC2(C)C [TTNBP]		2000	1077	2883	10000	2600	21	positive impact	6500	4300		
Oc1nc(-c2ccc(C(F)(F)F)cc2)nc2c1CSCC2 [XAV939]											15	values of Fli1, effector present [7]: 13400; values of Fli1, effector removed ([7]; named effector removed): 7300; values of CD31, effector present [3]: 6500; values of CD31, effector removed ([3]; named effector removed): 2225; impact on PECAM1 and Fli1 expression ([4]; FIG. 6A-6B model): positive impact; CD34 levels, effector present [9, 15]: 7180; CD34 levels, effector removed ([9]; FIG. 6 model): 5836
FGF2: FGFR agonist, e.g. recombinant human FGF2							did not significantly impact the expression of CD31				16	values of Fli1, effector present [7]: 1300; values of Fli1, effector removed ([7]; named effector removed): 500; values of CD31, effector present [3]: 6500; values of CD31, effector removed ([3]; named effector removed): 1990; impact on PECAM1, FLI1, and CDH5 expression ([4]; FIG. 6A-6B model): positive impact; values of CDH5, effector present [5, 15]: 19000; values of CDH5, effector removed ([5]; FIG. 6 model, named effector removed): 5000; CD34 levels, effector removed ([9]; FIG. 6 model): did not change significantly
VEGF	32	2000	340	4900	10000	0	39	positive impact	6500	1000	42	values of FLI1, effector removed ([7]; FIG. 5 model, named effector removed, other factors kept): 1035; impact on expression of all genes (PECAM1, CD34, CDH5 and Fli1) ([4]; FIG. 6A-6B model): positive impact; also recorded: critical; impact on expression of all genes (PECAM1, CD34, CDH5 and Fli1) ([4]; FIG. 7A-7B model): positive impact
heparin		2000	1500	2883	10000	5800	11	positive impact	6500	4800		
